Assay results published in PMC5748155 (Journal of medicinal chemistry, 2017).

Tests used:
Conditions in all cases: relative to compound 2
[1] = system: HCV replicon D168V variant; assay type: cell-based, Hepatitis C virus
[2] = system: NS3/4A protease WT and variants; test: Enzyme inhibition assays, statements across WT protease and variants; assay type: biochemical, Hepatitis C virus
GT1a WT NS3/4A Protease = GT1a WT NS3/4A Protease (Hepatitis C virus genotype 1a, UniProt P27958); test: Enzyme inhibition assay, wild-type GT1a protease; assay type: biochemical
wild-type HCV replicon = assay type: cell-based, Hepatitis C virus
[3] = system: HCV replicon D168A variant; assay type: cell-based, Hepatitis C virus

COc1ccc2nc(C)c(O[C@@H]3C[C@H]4C(=O)N[C@]5(C(=O)NS(=O)(=O)C6CC6)C[C@H]5/C=C\CCCCC[C@H](NC(=O)OC(C)(C)C)C(=O)N4C3)nc2c1 [Compound 18b]
fold improvement in replicon potency against D168V variant [1]: ~ 2 fold

CCc1nc2ccccc2nc1O[C@@H]1C[C@H]2C(=O)N[C@]3(C(=O)NS(=O)(=O)C4CC4)C[C@H]3/C=C\CCCCC[C@H](NC(=O)OC(C)(C)C)C(=O)N2C1 [Compound 18g]
fold decrease in biochemical potency [2]: about 2 fold

CCc1nc2ccc(OC)cc2nc1O[C@@H]1C[C@H]2C(=O)N[C@]3(C(=O)NS(=O)(=O)C4CC4)C[C@H]3/C=C\CCCCC[C@H](NC(=O)OC3CCCC3)C(=O)N2C1 [Compound 22a, Cyclopentyl ((2R,6S,13aS,14aR,16aS,Z)-14a-((cyclopropylsulfonyl)carbamoyl)-2-((3-ethyl-7-methoxyquinoxalin-2-yl)oxy)-5,16-dioxo-1,2,3,5,6,7,8,9,10,11,13a,14,14a,15,16,16a-hexadecahydrocyclopropa[e]pyrrolo[1,2-a][1,4]diazacyclopentadecin-6-yl)carbamate]
fold increase in biochemical potency against WT protease (GT1a WT NS3/4A Protease): 2 fold | fold enhanced replicon potency against WT HCV (wild-type HCV replicon): 2 fold | fold enhanced replicon potency against D168A variant [3]: 2 fold
